In patent US10064858B2, “Methods and compositions for treating bacterial infections with iron chelators” (THE UNITED STATES OF AMERICA, AS REPRESENTED BY THE …, priority 2011, dated 2018):
Read-outs that look alike come from different tables or passages of the source.

Columns and labels:
Type in all cases: cell-based
Acinetobacter baumannii = assay: MIC, CLSI microdilution (Tables 1 and 6)
Procedure: (§1) The minimal inhibitory concentration (MIC) of non-toxic iron chelators was determined against standard strains of MDR bacteria and clinical isolates according to the guidelines of the Clinical and Laboratory Standards Institute (CLSI).
(§2) Individual MICs were determined following the microdilution method recommended by CLSI in cationic-adjusted Mueller-Hinton Broth (CAMHB), or M9 media. […] Tests were performed in triplicate. MIC of iron chelators were determined for noscomial ESKAPE pathogens.
(§3) MIC were determined in CAMHB media as described above in Example 8.

E. coli = assay: MIC, CLSI microdilution (Tables 1 and 6); settings: Escherichia coli, Table 1, read-out: MIC of Iron Chelators
Procedure: as §1, §2, §3

K. pneumonia = assay: MIC, CLSI microdilution (Tables 1 and 6); settings: Klebsiella pneumoniae, Table 1, read-out: MIC of Iron Chelators
Procedure: as §1, §2, §3

P. aeruginosa = assay: MIC, CLSI microdilution (Tables 1 and 6); settings: Pseudomonas aeruginosa, Table 1, read-out: MIC of Iron Chelators
Procedure: as §1, §2, §3

S. aureus = assay: MIC, CLSI microdilution (Tables 1 and 6); settings: Staphylococcus aureus, Table 1, read-out: MIC of Iron Chelators
Procedure: as §1, §2, §3

[1] = system: clinical isolates of A. baumannii; assay: MIC for clinical isolates in CAMHB media (Table 3); settings: Acinetobacter baumannii
Procedure: as §2

[2] = system: A. baumannii AB 19606, AB 17978; assay: Checkerboard assay, chelator with antibiotic (FIC)
Excerpt: Drug interactions were initially evaluated with the “checkerboard” microdilution design, which provided a matrix of all drug combinations assayed in terms of fractions of the previously determined MIC. The checkerboard microdilution design is described in R. J. Tallarida, “Drug Synergism: Its Detection and Applications,” Journal of Pharmacology and Experimental Therapeutics, 865-872 (2001); and in R. L. White, et al., (1996), supra. FIGS. 39A and 39B show the wellplates having different concentrations of iron chelator and antibiotic, as labeled along the x-axis and y-axis. […] The checkerboard assay was used to asses other combinations of iron chelators and antibiotics. The fractional inhibitory concentration index (FIC), which was calculated as follows: FIC=(MIC A in combination/MIC A)+(MIC B in combination/MIC B). […] Blank spaces indicate concentrations not tested. […] Against the species PA PAO1 and PA 27853, all the antibiotics except for Ami.

[3] = system: AB5075 a MDR-clinical isolate of A. baumannii; assay: Time-kill assay in CAMHB; settings: 0.5×MIC, 1×MIC and 2×MIC; 0, 2 and 4 hours
Procedure: Reductions in colony forming units (CFU)/mL were determined over time (time-kill assay) after exposure to VK28 and deferiprone (DFP), the two iron chelators that performed best in MIC assays when compared to controls. To better represent the iron content found in the human body, MIC and time-kill assays were also determined in minimal media and tissue culture media. Time-Kill assays were performed as previously described in G. P. Neupane et al., “In vitro time-kill activities of ciprofloxacin alone and in combination with the iron chelator deferasirox against Vibrio vulnificus,” European Journal of Clinical Microbiology and Infectious Diseases, 407-410 (2010); and R. L. White, et al., “Comparison of Three Different In Vitro Methods of Detecting synergy: Time-Kill, Checkerboard, and E test,” Journal of Antimicrobial Agents and Chemotherapy, 1914-1918 (1996). Initial inocula, for example 1×10^6 CFU/mL or 1×10^7 CFU/mL were challenged with iron chelator with and/or without an antibiotic. Cells were allowed to grow in CAMHB at 37° C. for 24 hours. Time-kill results were analyzed by determining the change in log 10 numbers of CFU/ml at 0, 6, and 24 h, compared to counts at 0 h. Antimicrobials were considered bactericidal at the lowest concentration that reduced the size of the original inoculum by >3 log 10 CFU/ml (99.9%) over each of the time periods and were considered bacteriostatic if the inoculum's size was reduced by 0 to <3 log 10 CFU/ml.
In this example, time-kill assays were performed as described in Example 9 using Apo6619 as the iron chelator against AB5075 (MRSN959), the MDR-clinical isolate of A. baumannii. The initial inocula was 1×10^6 CFU/mL, and were challenged with 0.5×MIC, 1×MIC and 2×MIC of Apo6619. Time-kill results were analyzed by determining the change in log 10 numbers of CFU/mL at 0, 2 and 4 hours.
In this example, time-kill assays were performed as described in Example 9 using VK28 or DFP as the iron chelator against AB5075, the MDR-clinical isolate of A. baumannii. The initial inocula was 1×10^6 CFU/mL, and were challenged with 0.5×MIC, 1×MIC and 2×MIC of either VK28 or DFP. Time-kill results were analyzed by determining the change in log 10 numbers of CFU/mL at 2 and 6 hours.

Q: For `CNC(=O)c1c(O)c(=O)cc(C)n1C1CC1` [Apo6619, 1-cyclopropyl-3-hydroxy-6-methyl-4-oxo-1,4-dihydro-pyridine-2-carboxylic acid methylamide], which MIC (Acinetobacter baumannii; ATCC17978, ATCC 17978, Table 1, read-out: MIC of Iron Chelators) is on record?
A: Its MIC is 250 µg/mL.

Q: What about the MIC (Acinetobacter baumannii; ATCC19606, ATCC 19606, Table 1, read-out: MIC of Iron Chelators) of the same compound?
A: Its MIC is 250 µg/mL.

Q: And the MIC (E. coli; ATCC35218, ATCC 35218)?
A: Its MIC is 250 µg/mL.

Q: What about the MIC (E. coli; ATCC43888, ATCC 43888 (0157:H7)) of the same compound?
A: Its MIC is 250 µg/mL.

Q: And the MIC (K. pneumonia; ATCC700603, ATCC 700603)?
A: Its MIC is > 500 µg/mL.

Q: And the MIC (K. pneumonia; BAA2146, BAA-2146)?
A: Its MIC is > 500 µg/mL.

Q: What about the MIC (P. aeruginosa; ATCC27853, ATCC 27853) of the same compound?
A: The MIC was > 500 µg/mL.

Q: And the MIC (P. aeruginosa; PAO1)?
A: The MIC was > 500 µg/mL.

Q: What about the MIC (S. aureus; ATCC25923, ATCC 25923) of the same compound?
A: The MIC was > 500 µg/mL.

Q: And the MIC (S. aureus; ATCC 43300 (MRSA))?
A: Its MIC is > 500 µg/mL.

Q: What about the MIC ([1]; AB967, read-out: MIC of Iron Chelators) of the same compound?
A: Its MIC is 250 µg/mL.

Q: What about the MIC ([1]; AB2828, read-out: MIC of Iron Chelators) of the same compound?
A: The MIC was 500 µg/mL.

Q: And the MIC ([1]; AB3340, read-out: MIC of Iron Chelators)?
A: Its MIC is 250 µg/mL.

Q: And the MIC ([1]; AB3560, read-out: MIC of Iron Chelators)?
A: Its MIC is 500 µg/mL.

Q: What about the MIC ([1]; AB3638, read-out: MIC of Iron Chelators) of the same compound?
A: Its MIC is 500 µg/mL.

Q: And the MIC ([1]; AB3785, read-out: MIC of Iron Chelators)?
A: The MIC was 500 µg/mL.

Q: And the MIC ([1]; AB3806, read-out: MIC of Iron Chelators)?
A: Its MIC is 1000 µg/mL.

Q: What about the MIC ([1]; AB3917, read-out: MIC of Iron Chelators) of the same compound?
A: The MIC was 500 µg/mL.

Q: And the MIC ([1]; AB3927, read-out: MIC of Iron Chelators)?
A: Its MIC is 250 µg/mL.

Q: What about the MIC ([1]; AB4025, read-out: MIC of Iron Chelators) of the same compound?
A: The MIC was 500 µg/mL.

Q: And the MIC ([1]; AB4026, read-out: MIC of Iron Chelators)?
A: The MIC was 500 µg/mL.

Q: And the MIC ([1]; AB4027, read-out: MIC of Iron Chelators)?
A: The MIC was 500 µg/mL.

Q: And the MIC ([1]; AB4052, read-out: MIC of Iron Chelators)?
A: The MIC was 500 µg/mL.

Q: What about the MIC ([1]; AB4269, read-out: MIC of Iron Chelators) of the same compound?
A: The MIC was 250 µg/mL.

Q: What about the MIC ([1]; AB4448, read-out: MIC of Iron Chelators) of the same compound?
A: The MIC was 500 µg/mL.

Q: And the MIC ([1]; AB4456, read-out: MIC of Iron Chelators)?
A: The MIC was 500 µg/mL.

Q: And the MIC ([1]; AB4490, read-out: MIC of Iron Chelators)?
A: Its MIC is 500 µg/mL.

Q: And the MIC ([1]; AB4498, read-out: MIC of Iron Chelators)?
A: Its MIC is 500 µg/mL.

Q: What about the MIC ([1]; AB4795, read-out: MIC of Iron Chelators) of the same compound?
A: The MIC was 500 µg/mL.

Q: What about the MIC ([1]; AB4857, read-out: MIC of Iron Chelators) of the same compound?
A: The MIC was 500 µg/mL.

Q: What about the MIC ([1]; AB4878, read-out: MIC of Iron Chelators) of the same compound?
A: The MIC was 500 µg/mL.

Q: What about the MIC ([1]; AB4932, read-out: MIC of Iron Chelators) of the same compound?
A: The MIC was 500 µg/mL.

Q: And the MIC ([1]; AB4957, read-out: MIC of Iron Chelators)?
A: The MIC was 250 µg/mL.

Q: What about the MIC ([1]; AB4991, read-out: MIC of Iron Chelators) of the same compound?
A: The MIC was 500 µg/mL.

Q: What about the MIC ([1]; AB5001, read-out: MIC of Iron Chelators) of the same compound?
A: Its MIC is 250 µg/mL.

Q: And the MIC ([1]; AB5075, read-out: MIC of Iron Chelators)?
A: Its MIC is 250 µg/mL.

Q: And the MIC ([1]; AB5197, read-out: MIC of Iron Chelators)?
A: Its MIC is 500 µg/mL.

Q: What about the MIC ([1]; AB5256, read-out: MIC of Iron Chelators) of the same compound?
A: The MIC was 250 µg/mL.

Q: What about the MIC ([1]; AB5674, read-out: MIC of Iron Chelators) of the same compound?
A: The MIC was 250 µg/mL.

Q: What about the MIC ([1]; AB5711, read-out: MIC of Iron Chelators) of the same compound?
A: Its MIC is 250 µg/mL.

Q: What about the FIC ([2]; AB 17978, in combination with Amikacin) of the same compound?
A: The FIC was 0.75.

Q: And the FIC ([2]; AB 17978, in combination with Cefotaxine)?
A: The FIC was 0.75.

Q: And the FIC ([2]; AB 17978, in combination with Colisitin (Colistin))?
A: Its FIC is 0.75.

Q: What about the FIC ([2]; AB 17978, in combination with Doxycycline) of the same compound?
A: The FIC was 1.25.

Q: What about the FIC ([2]; AB 17978, in combination with Rifampin) of the same compound?
A: The FIC was 0.75.

Q: What about the FIC ([2]; AB 19606, in combination with Amikacin) of the same compound?
A: Its FIC is 1.25.

Q: And the FIC ([2]; AB 19606, in combination with Cefotaxine)?
A: The FIC was 1.25.

Q: And the FIC ([2]; AB 19606, in combination with Colisitin (Colistin))?
A: The FIC was 1.25.

Q: What about the FIC ([2]; AB 19606, in combination with Doxycycline) of the same compound?
A: Its FIC is 2.25.

Q: And the FIC ([2]; AB 19606, in combination with Rifampin)?
A: The FIC was 0.75.

Q: And the time-kill effect [3]?
A: Its time-kill effect is “bactericidal (considered bactericidal at the lowest concentration that reduced the size of the original inoculum by >3 log 10 CFU/ml (99.9%))”.
